5 sequences from PMC4642847, “The PDB database is a rich source of alpha-helical anti-microbial peptides to combat disease causing pathogens” (F1000Research, 2015) can be followed below.

In assay [1] the test system is Liberibacter crescens BT-1 (Lc).
Assay [2] concerns Xylella fastidiosa 3A2 (Xf).
Assay [3] has as its system Xanthomonas arboricola 417 (Xa).

Where no end group is shown, it is not given here. Some results are limits rather than exact numbers.

For the sequence “KWKVFKKIEKMGRNIRNGIVKAGPAIAVLGEAKAL [CECB, Cecropin B, reference compound]”, the “Minimum Inhibitory Concentration” value in assay [1] is listed as 100 µM; in assay [2], 100 25 µM.

Turning to TAYGIMARQPNSRKSFIDSSIRLAR [CHITI25], the “Minimum Inhibitory Concentration” value in assay [1] is on record as more than 300 µM; in assay [2] it was 100 150 µM; in assay [3], 100 150 µM.

For the sequence TIWKGVPKFLRRVDTALKNI [PPC20], the “Minimum Inhibitory Concentration” value is recorded as 200 µM in assay [1] and 150 50 µM in assay [2].

On to TLDELELFTDAVERW [ISS15], for which the “Minimum Inhibitory Concentration” value in assay [1] is listed as more than 300 µM; in assay [2], >300 >300 µM; in assay [3], >300 >300 µM.

As to “WKVFKKIEKMGRNIRNGIVKA [CBNT21, reference compound]”, the “Minimum Inhibitory Concentration” value is 200 µM in assay [1] and 200 25 µM in assay [2].
